From patent US9433605B2, “Method for promoting synthesis of tissue collagen” (Kyowa Hakko Bio Co., Ltd., priority 2006, dated 2016) come the findings set out here.

Data set [1] deals with synthesis of collagen in the skin. Put plainly: Subcutaneous sponge implant: amount of hydroxyproline as index of collagen-synthesizing and tissue-restoring ability. In kind it is in vivo. The conditions noted are these: rats, sponge pieces, Student's t-test p < 0.05. How it is done: F344/DuCrlCrlj rats (12 heads, 29-week-old male; purchased from Charles River Laboratories Japan, Inc.) were divided into 2 groups each consisting of 6 rats.
The rats of Group 1 and Group 2 were fed with the feed of Example 5 and the control feed of Comparative Example 1, respectively, ad libitum for 7 days. The abdominal area of each rat was shaved with clippers under anesthesia by intraperitoneal administration of pentobarbital, and cut sponge pieces (ca. 150 mg, 2 mm thick, ca. 38 mm×12 mm; Ivalon, Inc.) were inserted into two spots under the skin, followed by suturing. After further feeding for 7 days, the sponge pieces were taken out.
The sponge pieces were subjected to reaction using 6N hydrochloric acid (20 ml/piece) at 110° C. for 18 hours to decompose them with acid and heat. The products obtained by decomposition with acid and heat were diluted 10 times with 1M borate buffer (pH 10.6), and the amount of hydroxyproline was measured in the same manner as in Test Example 1 and was regarded as an index of the collagen-synthesizing ability and tissue-restoring ability of a rat.
The values were shown in terms of average value ±standard deviation and a test of statistical significance was performed by Student's t-test.

A short description of data set [2]: Concentration of free hydroxyproline in serum and skin after oral intake. In kind it is in vivo. The following applies: HOS:HR-1 mouse, 500 mg/kg oral, 0.5-24 hours, FIGS. 1 and 2. As for the experimental part: HOS:HR-1 mouse (seven-week-old female; purchased from Japan SLC, Inc.) was used in the test.
Trans-4-hydroxy-L-proline (Kyowa Hakko Kogyo Co., Ltd.; hereinafter referred to as hydroxyproline) was dissolved in purified water at a concentration of 50 mg/ml, and the resulting solution was orally administered in an amount of 500 mg/kg. After 0.5, 1, 2, 4, 6 and 24 hours, blood was collected from the abdominal vena cava of the mouse under diethyl ether inhalation anesthesia to obtain a serum. After cervical dislocation, dorsal skin was collected, subjected to freeze-disruption and then to extraction with water to obtain a skin extract.
The amount of hydroxyproline in the sera and the skin extract was analyzed by high performance liquid chromatography using ODS column ([…]×15 cm, GL Sciences Inc.) after protein was removed with an equal amount of 2% (w/v) sulfosalicylic acid and the second amino group was labeled with NBD-Cl (4-chloro-7-nitro-2,1,3-benzoxadiazole, Tokyo Chemical Industry Co., Ltd.).

In a further data set the test system is skin wrinkles or sagging. Kind of data set: Parallel-group double-blind test, 10-level self-rating of facial skin condition. The following applies: oral ingestion, 4 weeks, conclusion from Table 2. It counts as in vivo, human. As for the experimental part:
Females aged 47 to 65 years (21 subjects) who chronically suffer from dry skin and rough skin were divided into two groups. After a 2-week observation period, Group 1 (9 subjects) and Group 2 (12 subjects) ingested hard capsules of Example 6 and hard capsules of Comparative Example 2, respectively, for 4 weeks (2 capsules each morning and evening). The test was carried out by parallel-group double-blind test. At the start and the end of the period of ingesting hard capsules, the following questions 1 to 3 were addressed to the subjects (answer “1”: level 1, answer “10”: level 10) and the skin conditions of the subjects were evaluated by a 10-level rating system. • Question 1: Evaluate the level of wrinkles on your face.
1: Wrinkles all over the surface
10: No wrinkles • Question 2: Evaluate the elasticity of the skin of your face.
10: Extreme elasticity • Question 3: Evaluate the firmness of the skin of your face.
The improvement rate (%) was calculated according to Equation 1. Improvement rate (%)=average value of levels after intake/average value of levels before intake×100 [Equation 1]

As for `O=C(O)[C@@H]1C[C@@H](O)CN1` [hydroxyproline, Trans-4-hydroxy-L-proline], the “amount of hydroxyproline derived from heat-decomposed collagen (versus control feed)” value in data set [1] was “significantly increased”. Besides, the “movement of orally ingested hydroxyproline into blood and skin (free hydroxyproline in serum and skin extract)” value in data set [2] is “quickly moves into blood and skin”. Further, the “wrinkles and sagging of the face” value in the data set with skin wrinkles or sagging is recorded as “improved”.
